Assay results taken from patent EP0126813A1, “Process for preparing imidazole compounds” (Newport Pharmaceuticals International, Inc., priority 1983, dated 1984).

Experiments:
[1] = test system: SRBC Induced Antibody Formation; experiment: SRBC induced antibody formation; format: in vivo; settings: for X̄ PFC/10^6 Cells: saline control 53
Text: In Table 2 the SRBC Induced Antibody Formation procedure employed was that shown in Simon EPO application 0036077 page 46.

Lymphocyte [2] = experiment: LPS induced lymphocyte proliferation (mitogen induced lymphocyte proliferation); format: cell-based; settings: for X̄ cpm: control 7044 cpm
Text: In Table 1 the effect of NPT 15459 on LPS Induced Proliferation is described.

Lymphocyte [3] = experiment: Con A induced lymphocyte proliferation (mitogen induced lymphocyte proliferation); format: cell-based; settings: for X̄ cpm: control 35,059 cpm
Text: In Table 1 the effect of NPT 15459 on con A Induced Proliferation is described. The procedure is described in Simon U.S. patent 4,221,909, column 24, line 12 to column 25, line 10.

[4] = Solubility (summary of chemical properties); format: physicochemical
[5] = Lymphocyte, 5.0 µg/ml, read-out: Percent Change from Control
[6] = Lymphocyte, 10.0 µg/ml, read-out: Percent Change from Control

CCCCCC[C@H]([C@H](C)O)n1cnc(C(N)=O)c1N (relative stereo) [NPT 15459, erythro-3-(2-hydroxy-3-nonyl)-4-amino-imidazole-5-carboxamide]
Percent Change from Control ([1]; 5.0 mg/kg): +24%
X̄ PFC/10^6 Cells ([1]; 5.0 mg/kg): 66 PFC/10^6 Cells
Percent Change from Control ([1]; .05 mg/kg): +196%
X̄ PFC/10^6 Cells ([1]; .05 mg/kg): 157 PFC/10^6 Cells
Percent Change from Control ([1]; .5 mg/kg): +126%
X̄ PFC/10^6 Cells ([1]; .5 mg/kg): 120 PFC/10^6 Cells
X̄ cpm (Lymphocyte [2]; 5.0 µg/ml): 4128 cpm
X̄ cpm (Lymphocyte [2]; 10.0 µg/ml): 2449 cpm
X̄ cpm (Lymphocyte [2]; .02 µg/ml): 6184 cpm
X̄ cpm (Lymphocyte [2]; .5 µg/ml): 6676 cpm
inhibition at 5 µg/mL (Lymphocyte [2]; [5]): 42%
inhibition at 10 µg/mL (Lymphocyte [2]; [6]): 66%
inhibition at 0.02 µg/mL (Lymphocyte [2]; Lymphocyte, .02 µg/ml, read-out: Percent Change from Control): 12%
inhibition at 0.5 µg/mL (Lymphocyte [2]; Lymphocyte, .5 µg/ml, read-out: Percent Change from Control): 6%
X̄ cpm (Lymphocyte [3]; 5.0 µg/ml): 20,095 cpm
X̄ cpm (Lymphocyte [3]; 10.0 µg/ml): 12,736 cpm
X̄ cpm (Lymphocyte [3]; .020 µg/ml): 35,747 cpm
X̄ cpm (Lymphocyte [3]; .500 µg/ml): 30,920 cpm
inhibition at 5 µg/mL (Lymphocyte [3]; [5]): 43%
inhibition at 10 µg/mL (Lymphocyte [3]; [6]): 65%
inhibition at 0.02 µg/mL (Lymphocyte [3]; Lymphocyte, .020 µg/ml, read-out: Percent Change from Control): -2%
inhibition at 0.5 µg/mL (Lymphocyte [3]; Lymphocyte, .500 µg/ml, read-out: Percent Change from Control): 12%
Solubility ([4]; HCl (Aq), acetic acid, methanol, ethanol): very soluble
Solubility ([4]; benzene, water): insoluble
Solubility ([4]; isopropanol): soluble
